± gives the standard deviation of the averaged measurements.
Key:
[1] = test system: 409B2 hiPSC (iCRISPR Cas9, FRMD7 editing); experiment: NHEJ-attributed indel frequency relative to solvent control (fold (ratio to mock)); higher = more NHEJ outcomes
Experimental: (§1)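 Subset screen of 55 drugs tested at 5 concentrations around the effective screening dose, in 409B2 iCRISPR Cas9 hiPSCs editing FRMD7 with a ssDNA donor. Drugs were applied for 24 h. Viability was read by resazurin and editing outcomes by amplicon sequencing (HDR, NHEJ <2 bp microhomology, MMEJ ≥2 bp microhomology). Values are relative to solvent mock controls; two biological replicates.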

[2] = test system: 409B2 hiPSC (iCRISPR Cas9, FRMD7 editing); experiment: MMEJ-attributed deletion frequency relative to solvent control (fold (ratio to mock)); higher = more MMEJ outcomes
Experimental: as §1

[3] = test system: 409B2 hiPSC (iCRISPR Cas9, FRMD7 editing); experiment: cell survival relative to solvent control (fold (ratio to mock)); higher = more surviving cells
Experimental: as §1

[4] = test system: 409B2 hiPSC (iCRISPR Cas9, FRMD7 editing); experiment: HDR (precise edit) frequency relative to solvent control (fold (ratio to mock)); higher = more homology-directed repair outcomes
Experimental: as §1

Nc1c(CC(=O)O)cccc1C(=O)c1ccc(Br)cc1 [Bromfenac Sodium] (in DMSO)
NHEJ-attributed indel frequency ([1]; 200 nM): 0.984 ± 0.026 | NHEJ-attributed indel frequency ([1]; 500 nM): 0.957 ± 0.032 | NHEJ-attributed indel frequency ([1]; 1000 nM): 0.984 ± 0.016 | NHEJ-attributed indel frequency ([1]; 2000 nM): 1.02 ± 0.022 | NHEJ-attributed indel frequency ([1]; 5000 nM): 0.975 ± 0.044 | MMEJ-attributed deletion frequency ([2]; 200 nM): 0.866 ± 0.12 | MMEJ-attributed deletion frequency ([2]; 500 nM): 0.944 ± 0.072 | MMEJ-attributed deletion frequency ([2]; 1000 nM): 0.811 ± 0.094 | MMEJ-attributed deletion frequency ([2]; 2000 nM): 0.89 ± 0.033 | MMEJ-attributed deletion frequency ([2]; 5000 nM): 0.976 ± 0.09 | cell survival ([3]; 200 nM): 1.06 | cell survival ([3]; 500 nM): 1.2 | cell survival ([3]; 1000 nM): 0.983 | cell survival ([3]; 2000 nM): 1.04 | cell survival ([3]; 5000 nM): 1.09 | HDR ([4]; 200 nM): 1.09 ± 0.065 | HDR ([4]; 500 nM): 1.09 ± 0.07 | HDR ([4]; 1000 nM): 1.11 ± 0.058 | HDR ([4]; 2000 nM): 1.05 ± 0.025 | HDR ([4]; 5000 nM): 1.11 ± 0.053

CO[C@H]1O[C@@H]2O[C@@]3(C)CC[C@H]4[C@H](C)CC[C@@H]([C@H]1C)[C@@]24OO3 [Artemether (SM-224)] (in DMSO)
NHEJ-attributed indel frequency ([1]; 200 nM): 0.983 ± 0.012 | NHEJ-attributed indel frequency ([1]; 500 nM): 0.976 ± 0.022 | NHEJ-attributed indel frequency ([1]; 1000 nM): 0.958 ± 0.011 | NHEJ-attributed indel frequency ([1]; 2000 nM): 1 ± 0.024 | NHEJ-attributed indel frequency ([1]; 5000 nM): 1.02 ± 0.037 | MMEJ-attributed deletion frequency ([2]; 200 nM): 0.853 ± 0.13 | MMEJ-attributed deletion frequency ([2]; 500 nM): 0.935 ± 0.072 | MMEJ-attributed deletion frequency ([2]; 1000 nM): 0.804 ± 0.037 | MMEJ-attributed deletion frequency ([2]; 2000 nM): 0.907 ± 0.14 | MMEJ-attributed deletion frequency ([2]; 5000 nM): 0.946 ± 0.026 | cell survival ([3]; 200 nM): 0.947 | cell survival ([3]; 500 nM): 1.23 | cell survival ([3]; 1000 nM): 0.644 | cell survival ([3]; 2000 nM): 1.09 | cell survival ([3]; 5000 nM): 1.03 | HDR ([4]; 200 nM): 1.06 ± 0.036 | HDR ([4]; 500 nM): 1.13 ± 0.018 | HDR ([4]; 1000 nM): 1.123 ± 0.0055 | HDR ([4]; 2000 nM): 1.09 ± 0.11 | HDR ([4]; 5000 nM): 1.17 ± 0.15

O=C1NC(=O)[C@@H](c2cn3c4c(cccc24)CCC3)[C@@H]1c1c[nH]c2ccccc12 [Tivantinib (ARQ 197)] (in DMSO)
NHEJ-attributed indel frequency ([1]; 200 nM): 0.949 ± 0.045 | NHEJ-attributed indel frequency ([1]; 500 nM): 1.01 ± 0.025 | NHEJ-attributed indel frequency ([1]; 1000 nM): 1.115 ± 0.0054 | NHEJ-attributed indel frequency ([1]; 2000 nM): 1 ± 0.05 | NHEJ-attributed indel frequency ([1]; 5000 nM): 0.532 ± 0.069 | MMEJ-attributed deletion frequency ([2]; 200 nM): 0.915 ± 0.074 | MMEJ-attributed deletion frequency ([2]; 500 nM): 0.98 ± 0.025 | MMEJ-attributed deletion frequency ([2]; 1000 nM): 1 ± 0.088 | MMEJ-attributed deletion frequency ([2]; 2000 nM): 1.48 ± 0.36 | MMEJ-attributed deletion frequency ([2]; 5000 nM): 0.786 ± 0.051 | cell survival ([3]; 200 nM): 0.979 | cell survival ([3]; 500 nM): 1.04 | cell survival ([3]; 1000 nM): 0.271 | cell survival ([3]; 2000 nM): 0.0426 | cell survival ([3]; 5000 nM): 0.0118 | HDR ([4]; 200 nM): 1.01 ± 0.089 | HDR ([4]; 500 nM): 1.05 ± 0.015 | HDR ([4]; 1000 nM): 0.897 ± 0.1 | HDR ([4]; 2000 nM): 0.507 ± 0.081 | HDR ([4]; 5000 nM): 0.281 ± 0.0069

CC[C@H](CO)Nc1nc(NCc2ccccc2)c2ncn(C(C)C)c2n1 [Roscovitine (Seliciclib,CYC202)] (in DMSO)
NHEJ-attributed indel frequency ([1]; 20 nM): 1.004 ± 0.0097 | NHEJ-attributed indel frequency ([1]; 50 nM): 1 ± 0.011 | NHEJ-attributed indel frequency ([1]; 100 nM): 0.992 ± 0.013 | NHEJ-attributed indel frequency ([1]; 200 nM): 0.995 ± 0.037 | NHEJ-attributed indel frequency ([1]; 500 nM): 1 ± 0.021 | MMEJ-attributed deletion frequency ([2]; 20 nM): 0.952 ± 0.12 | MMEJ-attributed deletion frequency ([2]; 50 nM): 0.912 ± 0.082 | MMEJ-attributed deletion frequency ([2]; 100 nM): 0.943 ± 0.021 | MMEJ-attributed deletion frequency ([2]; 200 nM): 0.943 ± 0.18 | MMEJ-attributed deletion frequency ([2]; 500 nM): 1 ± 0.058 | cell survival ([3]; 20 nM): 1.04 | cell survival ([3]; 50 nM): 1.14 | cell survival ([3]; 100 nM): 0.963 | cell survival ([3]; 200 nM): 0.955 | cell survival ([3]; 500 nM): 1.17 | HDR ([4]; 20 nM): 1.06 ± 0.024 | HDR ([4]; 50 nM): 0.983 ± 0.017 | HDR ([4]; 100 nM): 1.08 ± 0.043 | HDR ([4]; 200 nM): 1.02 ± 0.043 | HDR ([4]; 500 nM): 1.11 ± 0.049

CC(=O)O[C@@]12CO[C@@H]1C[C@@H](O)[C@@]1(C)C(=O)[C@H](O)C3=C(C)[C@@H](O)C[C@@](O)([C@@H](OC(=O)c4ccccc4)[C@H]21)C3(C)C [10-DAB (10-Deacetylbaccatin)] (in DMSO)
NHEJ-attributed indel frequency ([1]; 200 nM): 0.906 ± 0.017 | NHEJ-attributed indel frequency ([1]; 500 nM): 0.983 ± 0.014 | NHEJ-attributed indel frequency ([1]; 1000 nM): 0.918 ± 0.075 | NHEJ-attributed indel frequency ([1]; 2000 nM): 0.488 ± 0.08 | NHEJ-attributed indel frequency ([1]; 5000 nM): 0.522 ± 0.1 | MMEJ-attributed deletion frequency ([2]; 200 nM): 1.06 ± 0.14 | MMEJ-attributed deletion frequency ([2]; 500 nM): 1.02 ± 0.049 | MMEJ-attributed deletion frequency ([2]; 1000 nM): 0.936 ± 0.083 | MMEJ-attributed deletion frequency ([2]; 2000 nM): 0.561 ± 0.18 | MMEJ-attributed deletion frequency ([2]; 5000 nM): 0.4879 ± 0.0029 | cell survival ([3]; 200 nM): 0.914 | cell survival ([3]; 500 nM): 1.06 | cell survival ([3]; 1000 nM): 0.177 | cell survival ([3]; 2000 nM): 0.00356 | cell survival ([3]; 5000 nM): 0.00663 | HDR ([4]; 200 nM): 1.063 ± 0.0036 | HDR ([4]; 500 nM): 1 ± 0.049 | HDR ([4]; 1000 nM): 0.816 ± 0.17 | HDR ([4]; 2000 nM): 0.304 ± 0.013 | HDR ([4]; 5000 nM): 0.339 ± 0.06

Nc1ccn(C[C@@H](CO)OCP(=O)(O)O)c(=O)n1 [Cidofovir] (in H2O)
NHEJ-attributed indel frequency ([1]; 2000 nM): 0.843 ± 0.058 | NHEJ-attributed indel frequency ([1]; 5000 nM): 0.835 ± 0.019 | NHEJ-attributed indel frequency ([1]; 10000 nM): 0.862 ± 0.049 | NHEJ-attributed indel frequency ([1]; 20000 nM): 0.736 ± 0.051 | NHEJ-attributed indel frequency ([1]; 50000 nM): 0.988 | MMEJ-attributed deletion frequency ([2]; 2000 nM): 0.789 ± 0.08 | MMEJ-attributed deletion frequency ([2]; 5000 nM): 0.881 ± 0.029 | MMEJ-attributed deletion frequency ([2]; 10000 nM): 0.924 ± 0.35 | MMEJ-attributed deletion frequency ([2]; 20000 nM): 0.727 ± 0.12 | MMEJ-attributed deletion frequency ([2]; 50000 nM): 0.968 | cell survival ([3]; 2000 nM): 0.624 | cell survival ([3]; 5000 nM): 0.548 | cell survival ([3]; 10000 nM): 0.333 | cell survival ([3]; 20000 nM): 0.167 | cell survival ([3]; 50000 nM): 0.863 | HDR ([4]; 2000 nM): 1.06 ± 0.083 | HDR ([4]; 5000 nM): 0.9 ± 0.055 | HDR ([4]; 10000 nM): 0.85 ± 0.081 | HDR ([4]; 20000 nM): 0.574 ± 0.012 | HDR ([4]; 50000 nM): 1.01

Source: the supplement of paper PMC12698765
